In ChEMBL document CHEMBL3603749, “Ligand efficient tetrahydro-pyrazolopyridines as inhibitors of ERK2 kinase” (Bioorg Med Chem Lett, 2015):

Test system: Caco-2
Assay: Permeability of the compound from apical to basolateral side in human Caco2 cells
Type: ADME, cell-based

permeability	Compound
impermeable	CS(=O)(=O)c1cccc(Cn2ccc(N3CCc4[nH]nc(-c5ccncc5)c4C3)cc2=O)c1
permeable	O=c1cc(N2CCc3[nH]nc(-c4ccncc4)c3C2)cc[nH]1
